≈ marks a conversion by molar mass, not a printed value.

The first assay has as its system Pasteurella multocida PM 6267 (P 2225 (L386), reference strain, mouse infection strain). Briefly: MIC, broth-microdilution (CLSI VET01-A4), strain PM 6267. It is filed as cell-based. To be noted: Pasteurella multocida strain PM 6267, broth-microdilution; unit assumed. As to the method:
(§1) For example, representative compounds were tested against ***, Mannheimia haemolytica and Pasteurella multocida, using the conventional broth-dilution assay.
(§2) The Minimum inhibitory concentrations (MIC) of compounds according to the invention for a number of veterinary bacterial pathogens were determined by the broth-microdilution method according to CLSI document VET01-A4.
(§3) Microdilution trays containing a doubling dilution series of the test compound were used for the tests. The MIC results were interpreted according to the CLSI documents VET01-S3. The lowest concentration of compound at which no visible growth (i.e. no turbidity) detected by the unaided eye was recorded as the MIC.
In general terms: In broth dilution the organism is exposed to a series of concentrations in liquid medium.
For the compound `C=CCNCc1ccc(C#Cc2ccc(C(=O)N[C@H](C(=O)NO)[C@@H](C)CC)cc2)cc1` [Compound 113], the MIC PM 6267 is 0.4 µg/mL (≈ 0.953 µM).

On to `CC(C)[C@H](NC(=O)c1ccc(C#Cc2ccc(CN(C)Cc3ccccc3)cc2)cc1)C(=O)NO` [Compound 105], for which the MIC PM 6267 was determined as 0.2 µg/mL (≈ 0.426 µM).

For `CC(C)[C@H](NC(=O)c1ccc(C#Cc2ccc(CNCc3ccncc3)cc2)cc1)C(=O)NO` [Compound 110], the MIC PM 6267 is at most 0.1 µg/mL.

`CC(C)[C@H](NC(=O)c1ccc(C#Cc2ccc(CN3CCN(c4ccccc4)CC3)cc2)cc1)C(=O)NO` [Compound 135]: the MIC PM 6267 turned out to be 0.8 µg/mL (≈ 1.57 µM).

The subject of the next assay is Mannheimia haemolytica MH 12587 (1071, BRD field isolate, macrolide-resistance: erm+, E+). As to the kind of experiment: MIC, broth-microdilution (CLSI VET01-A4), strain MH 12587. In kind it is cell-based. Conditions: Mannheimia haemolytica strain MH 12587, broth-microdilution; unit assumed. As to the method: as §1, §2, §3
In turn, `C=CCNCc1ccc(C#Cc2ccc(C(=O)N[C@H](C(=O)NO)[C@@H](C)CC)cc2)cc1` [Compound 113] had an MIC MH 12587 of 3.1 µg/mL (≈ 7.39 µM).

Compound `CC(C)[C@H](NC(=O)c1ccc(C#Cc2ccc(CN(C)Cc3ccccc3)cc2)cc1)C(=O)NO` [Compound 105] gave an MIC MH 12587 of 6.3 µg/mL (≈ 13.4 µM).

For the compound `CC(C)[C@H](NC(=O)c1ccc(C#Cc2ccc(CNCc3ccncc3)cc2)cc1)C(=O)NO` [Compound 110], the MIC MH 12587 was 0.8 µg/mL (≈ 1.75 µM).

`CC(C)[C@H](NC(=O)c1ccc(C#Cc2ccc(CN3CCN(c4ccccc4)CC3)cc2)cc1)C(=O)NO` [Compound 135] had an MIC MH 12587 of 1 µg/mL (≈ 1.96 µM).

Another assay concerns Pasteurella multocida PM 12080 (IV102277-0093, BRD field isolate). Briefly: MIC, broth-microdilution (CLSI VET01-A4), strain PM 12080. In kind it is cell-based. Conditions: Pasteurella multocida strain PM 12080, broth-microdilution; unit assumed. As to the method:
as §1, §2, §3
For the compound `C=CCNCc1ccc(C#Cc2ccc(C(=O)N[C@H](C(=O)NO)[C@@H](C)CC)cc2)cc1` [Compound 113], the MIC PM 12080 is 0.8 µg/mL (≈ 1.91 µM).

As to `CC(C)[C@H](NC(=O)c1ccc(C#Cc2ccc(CN(C)Cc3ccccc3)cc2)cc1)C(=O)NO` [Compound 105], the MIC PM 12080 was 0.8 µg/mL (≈ 1.7 µM).

The compound `CC(C)[C@H](NC(=O)c1ccc(C#Cc2ccc(CNCc3ccncc3)cc2)cc1)C(=O)NO` [Compound 110] returned an MIC PM 12080 of 0.2 µg/mL (≈ 0.438 µM).

As to `CC(C)[C@H](NC(=O)c1ccc(C#Cc2ccc(CN3CCN(c4ccccc4)CC3)cc2)cc1)C(=O)NO` [Compound 135], the MIC PM 12080 worked out at 0.8 µg/mL (≈ 1.57 µM).

The subject of another assay is Mannheimia haemolytica MH 6374 (ATCC 33396, reference strain). Briefly: MIC, broth-microdilution (CLSI VET01-A4), strain MH 6374. It is filed as cell-based. To be noted: Mannheimia haemolytica strain MH 6374, broth-microdilution; unit assumed. As to the method:
as §1, §2, §3
As for `C=CCNCc1ccc(C#Cc2ccc(C(=O)N[C@H](C(=O)NO)[C@@H](C)CC)cc2)cc1` [Compound 113], the MIC MH 6374 stood at 0.8 µg/mL (≈ 1.91 µM).

Consider `CC(C)[C@H](NC(=O)c1ccc(C#Cc2ccc(CN(C)Cc3ccccc3)cc2)cc1)C(=O)NO` [Compound 105], for which the MIC MH 6374 came out at 3.1 µg/mL (≈ 6.6 µM).

Compound `CC(C)[C@H](NC(=O)c1ccc(C#Cc2ccc(CNCc3ccncc3)cc2)cc1)C(=O)NO` [Compound 110] yielded an MIC MH 6374 of 0.4 µg/mL (≈ 0.876 µM).

For `CC(C)[C@H](NC(=O)c1ccc(C#Cc2ccc(CN3CCN(c4ccccc4)CC3)cc2)cc1)C(=O)NO` [Compound 135], the MIC MH 6374 amounted to 6.3 µg/mL (≈ 12.3 µM).

The test system of another assay is Mannheimia haemolytica MH 13093 (XB0472-6014.1, BRD field isolate). As to the kind of experiment: MIC, broth-microdilution (CLSI VET01-A4), strain MH 13093. In kind it is cell-based. Conditions: Mannheimia haemolytica strain MH 13093, broth-microdilution; unit assumed. As to the method: as §1, §2, §3
As to `C=CCNCc1ccc(C#Cc2ccc(C(=O)N[C@H](C(=O)NO)[C@@H](C)CC)cc2)cc1` [Compound 113], the MIC MH 13093 was 3.1 µg/mL (≈ 7.39 µM).

Regarding `CC(C)[C@H](NC(=O)c1ccc(C#Cc2ccc(CN(C)Cc3ccccc3)cc2)cc1)C(=O)NO` [Compound 105], the MIC MH 13093 was determined as 3.1 µg/mL (≈ 6.6 µM).

Compound `CC(C)[C@H](NC(=O)c1ccc(C#Cc2ccc(CNCc3ccncc3)cc2)cc1)C(=O)NO` [Compound 110] showed an MIC MH 13093 of 0.4 µg/mL (≈ 0.876 µM).

Take `CC(C)[C@H](NC(=O)c1ccc(C#Cc2ccc(CN3CCN(c4ccccc4)CC3)cc2)cc1)C(=O)NO` [Compound 135]: the MIC MH 13093 stood at 25 µg/mL (≈ 49 µM).

Another assay concerns Mannheimia haemolytica MH 6357 (M7/2, reference strain, cattle infection strain). As to the kind of experiment: MIC, broth-microdilution (CLSI VET01-A4), strain MH 6357. In kind it is cell-based. To be noted: Mannheimia haemolytica strain MH 6357, broth-microdilution; unit assumed. As to the method: as §1, §2, §3
In the case of `C=CCNCc1ccc(C#Cc2ccc(C(=O)N[C@H](C(=O)NO)[C@@H](C)CC)cc2)cc1` [Compound 113], the MIC MH 6357 turned out to be 3.1 µg/mL (≈ 7.39 µM).

In turn, `CC(C)[C@H](NC(=O)c1ccc(C#Cc2ccc(CN(C)Cc3ccccc3)cc2)cc1)C(=O)NO` [Compound 105] displayed an MIC MH 6357 of 6.3 µg/mL (≈ 13.4 µM).

With `CC(C)[C@H](NC(=O)c1ccc(C#Cc2ccc(CNCc3ccncc3)cc2)cc1)C(=O)NO` [Compound 110], the MIC MH 6357 turned out to be 1.6 µg/mL (≈ 3.5 µM).

The compound `CC(C)[C@H](NC(=O)c1ccc(C#Cc2ccc(CN3CCN(c4ccccc4)CC3)cc2)cc1)C(=O)NO` [Compound 135] registered an MIC MH 6357 of 3.1 µg/mL (≈ 6.07 µM).

The subject of a further assay is Mannheimia haemolytica MH 10720 (154, BRD field isolate). As to the kind of experiment: MIC, broth-microdilution (CLSI VET01-A4), strain MH 10720. In kind it is cell-based. To be noted: Mannheimia haemolytica strain MH 10720, broth-microdilution; unit assumed. As to the method: as §1, §2, §3
With `C=CCNCc1ccc(C#Cc2ccc(C(=O)N[C@H](C(=O)NO)[C@@H](C)CC)cc2)cc1` [Compound 113], the MIC MH 10720 turned out to be 0.4 µg/mL (≈ 0.953 µM).

As for `CC(C)[C@H](NC(=O)c1ccc(C#Cc2ccc(CN(C)Cc3ccccc3)cc2)cc1)C(=O)NO` [Compound 105], the MIC MH 10720 came out at 0.8 µg/mL (≈ 1.7 µM).

On to `CC(C)[C@H](NC(=O)c1ccc(C#Cc2ccc(CNCc3ccncc3)cc2)cc1)C(=O)NO` [Compound 110], for which the MIC MH 10720 was at most 0.1 µg/mL.

For the compound `CC(C)[C@H](NC(=O)c1ccc(C#Cc2ccc(CN3CCN(c4ccccc4)CC3)cc2)cc1)C(=O)NO` [Compound 135], the MIC MH 10720 turned out to be 0.8 µg/mL (≈ 1.57 µM).

The next assay deals with Mannheimia haemolytica MH 13065 (XB0446-6003.9, BRD field isolate). As to the kind of experiment: MIC, broth-microdilution (CLSI VET01-A4), strain MH 13065. Conditions: Mannheimia haemolytica strain MH 13065, broth-microdilution; unit assumed. It is filed as cell-based. As to the method: as §1, §2, §3
In the case of `C=CCNCc1ccc(C#Cc2ccc(C(=O)N[C@H](C(=O)NO)[C@@H](C)CC)cc2)cc1` [Compound 113], the MIC MH 13065 is 1.6 µg/mL (≈ 3.81 µM).

On to `CC(C)[C@H](NC(=O)c1ccc(C#Cc2ccc(CN(C)Cc3ccccc3)cc2)cc1)C(=O)NO` [Compound 105], for which the MIC MH 13065 amounted to 3.1 µg/mL (≈ 6.6 µM).

In turn, `CC(C)[C@H](NC(=O)c1ccc(C#Cc2ccc(CNCc3ccncc3)cc2)cc1)C(=O)NO` [Compound 110] yielded an MIC MH 13065 of 0.4 µg/mL (≈ 0.876 µM).

As for `CC(C)[C@H](NC(=O)c1ccc(C#Cc2ccc(CN3CCN(c4ccccc4)CC3)cc2)cc1)C(=O)NO` [Compound 135], the MIC MH 13065 came to 25 µg/mL (≈ 49 µM).

The subject of another assay is Pasteurella multocida PM 10775 (080130003051, BRD field isolate). As to the kind of experiment: MIC, broth-microdilution (CLSI VET01-A4), strain PM 10775. In kind it is cell-based. To be noted: Pasteurella multocida strain PM 10775, broth-microdilution; unit assumed. As to the method: as §1, §2, §3
With `C=CCNCc1ccc(C#Cc2ccc(C(=O)N[C@H](C(=O)NO)[C@@H](C)CC)cc2)cc1` [Compound 113], the MIC PM 10775 was at most 0.1 µg/mL.

`CC(C)[C@H](NC(=O)c1ccc(C#Cc2ccc(CN(C)Cc3ccccc3)cc2)cc1)C(=O)NO` [Compound 105] returned an MIC PM 10775 of at most 0.1 µg/mL.

`CC(C)[C@H](NC(=O)c1ccc(C#Cc2ccc(CNCc3ccncc3)cc2)cc1)C(=O)NO` [Compound 110]: the MIC PM 10775 is at most 0.1 µg/mL.

Consider `CC(C)[C@H](NC(=O)c1ccc(C#Cc2ccc(CN3CCN(c4ccccc4)CC3)cc2)cc1)C(=O)NO` [Compound 135], for which the MIC PM 10775 was at most 0.1 µg/mL.

The record behind these values is patent US11034650B2, “Compounds useful for treating a Mannheimia haemolytica or Histophilus somni infection” (Intervet Inc., priority 2016, dated 2021).
